Experimental findings from patent US8088804B2, “N-hydroxyamide derivatives possessing antibacterial activity” (Pfizer Inc., priority 2005, dated 2012) are described below.

One assay concerns E. coli (2). Description: Susceptibility testing (MIC, CLSI microdilution). It counts as cell-based, Escherichia coli. The conditions noted are these: 20 h at 35° C., in µg/mL (unit assumed).
For the next assay, the system named is E. coli tolC. Description: Susceptibility testing (MIC, CLSI microdilution). It counts as cell-based, Escherichia coli. As to conditions: 20 h at 35° C., unit assumed.
The next assay has as its target P. ae LpxC enzyme (Pseudomonas aeruginosa, UniProt P47205). Description: Enzyme inhibition testing (fluorescamine assay). It is filed as biochemical.
The subject of a further assay is P. aerug. (2). Nature of the assay: Susceptibility testing (MIC, CLSI microdilution). It counts as cell-based, Pseudomonas aeruginosa. As to conditions: 20 h at 35° C., in µg/mL (unit assumed).
The next assay has as its system P. aerug. Hypersuc. Nature of the assay: Susceptibility testing (MIC, CLSI microdilution). It counts as cell-based, Pseudomonas aeruginosa. As to conditions: 20 h at 35° C., Δ efflux, hypersusceptible strain, unit assumed. A general note: In broth dilution the organism is exposed to a series of concentrations in liquid medium.
For another assay, the system named is K. pneu. Description: Susceptibility testing (MIC, CLSI microdilution). It counts as cell-based, Klebsiella pneumoniae. The conditions noted are these: 20 h at 35° C., unit assumed.
The next assay relates to H. influen. Description: Susceptibility testing (MIC, CLSI microdilution). It is filed as cell-based, Haemophilus influenzae. The conditions noted are these: 20 h at 35° C., unit assumed.
[1] abbreviates: @0.1 μg/ml, read-out: ENZYME (percent inhibition).

≈ marks a conversion by molar mass, not a printed value.

Chain of P. ae LpxC enzyme (P47205 whole entry): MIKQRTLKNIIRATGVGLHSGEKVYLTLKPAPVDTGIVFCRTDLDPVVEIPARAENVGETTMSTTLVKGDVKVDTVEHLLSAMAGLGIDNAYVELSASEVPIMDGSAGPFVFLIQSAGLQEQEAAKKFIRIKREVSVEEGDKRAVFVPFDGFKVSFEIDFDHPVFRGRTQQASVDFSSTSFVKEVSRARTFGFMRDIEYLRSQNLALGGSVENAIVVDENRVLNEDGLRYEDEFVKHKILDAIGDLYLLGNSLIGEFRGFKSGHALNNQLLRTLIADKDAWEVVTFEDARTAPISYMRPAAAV

What is called inhibition is the percentage by which the read-out fell short of the control. With `CCc1ccc(-c2ccc(C(=O)N3CC[C@@H](N)[C@H]3C(=O)NO)cc2)cc1` [Compound 34, (2S,3R)-3-Amino-N-hydroxy-1-(4′-ethylbiphenylcarbonyl)pyrrolidine-2-carboxamide], the “MIC E. coli (2)” value against E. coli (2) is listed as above 64. Also, in the assay with E. coli tolC, the MIC E. coli tolC is above 64 µg/mL. The inhibition at 0.5 µg/mL at P. ae LpxC enzyme (@0.5 μg/ml, read-out: ENZYME (percent inhibition)) is 93%. Also, the “MIC P. aerug. (2)” value against P. aerug. (2) is 16-32. The MIC P. aerug. Hypersuc in the assay on P. aerug. Hypersuc worked out at 64 µg/mL (≈ 181 µM). In the assay on K. pneu., this compound had an MIC K. pneu. above 64 µg/mL. Also, the MIC H. influen. against H. influen. was above 64 µg/mL.

Regarding `O=C(NO)[C@H]1N(C(=O)c2ccc(Oc3ccccc3)cc2)CCS1(=O)=O` [Compound 35, (S)-N-Hydroxy-3-(4-phenoxybenzoyl)thiazolidinesulfone-2-carboxamide], the “MIC E. coli (2)” value against E. coli (2) is given as above 64. The same compound registered an MIC E. coli tolC in the assay on E. coli tolC of 0.125 µg/mL (≈ 0.332 µM). Further, at P. ae LpxC enzyme (setting [1]), the inhibition at 0.1 µg/mL was found to be 21%. In addition, in the assay with P. aerug. (2), the “MIC P. aerug. (2)” value is on record as above 64. The compound further yielded an MIC P. aerug. Hypersuc with P. aerug. Hypersuc above 64 µg/mL. The MIC K. pneu. against K. pneu. was above 64 µg/mL. Further, in the assay on H. influen., the MIC H. influen. was above 64 µg/mL.

On to `O=C(NO)[C@H]1N(C(=O)c2ccc(-c3ccc(F)cc3)cc2)CCS1(=O)=O` [Compound 37, (S)-3-(4′-Fluorobiphenylcarbonyl)-N-hydroxythiazolidinesulfone-2-carboxamide], for which, in the assay on E. coli (2), the “MIC E. coli (2)” value was above 64. This compound also returned an MIC E. coli tolC with E. coli tolC of at most 0.06 µg/mL. Also, at P. ae LpxC enzyme (@0.1 μg/ml), the “ENZYME (percent inhibition)” value is 42%. For the same compound, at P. ae LpxC enzyme (setting [1]), the inhibition at 0.1 µg/mL came to 32%. In the assay on P. aerug. (2), the “MIC P. aerug. (2)” value is 4-32. In the assay with P. aerug. Hypersuc, this compound had an MIC P. aerug. Hypersuc of 2 µg/mL (≈ 5.29 µM). In addition, the MIC K. pneu. in the assay with K. pneu. was above 64 µg/mL. Besides, the MIC H. influen. with H. influen. was above 64 µg/mL.

Turning to `O=C(NO)[C@H]1N(C(=O)c2ccc(-c3ccc(C(F)(F)F)cc3)cc2)CCS1(=O)=O` [Compound 38, (S)-3-(4′-(Trifluoromethyl)biphenylcarbonyl)-N-hydroxythiazolidinesulfone-2-carboxamide], the “MIC E. coli (2)” value in the assay on E. coli (2) is above 64. Besides, the MIC E. coli tolC in the assay with E. coli tolC is at most 0.06 µg/mL. For the same compound, the inhibition at 0.1 µg/mL on P. ae LpxC enzyme (setting [1]) came to 30%. Further, the “MIC P. aerug. (2)” value against P. aerug. (2) came to 32. The compound also displayed an MIC P. aerug. Hypersuc with P. aerug. Hypersuc of 8 µg/mL (≈ 18.7 µM). For the same compound, the MIC K. pneu. in the assay with K. pneu. is above 64 µg/mL. For the same compound, the MIC H. influen. in the assay on H. influen. was above 64 µg/mL.

For the compound `COc1ccc(C(=O)N2CC[C@@H](O)[C@H]2C(=O)NO)cc1SC(F)(F)F` [Compound 40, (2S,3R)-3-Hydroxy-N-hydroxy-1-(4-methoxy-3-trifluoromethylsulfanyl-benzoyl)-pyrrolidine-2-carboxamide], the “MIC E. coli (2)” value against E. coli (2) was above 64. This compound showed an MIC E. coli tolC against E. coli tolC of 32 µg/mL (≈ 84.1 µM). For the same compound, the inhibition at 10 µg/mL at P. ae LpxC enzyme (@10 μg/ml, read-out: ENZYME (percent inhibition)) amounted to 52%. For the same compound, in the assay on P. aerug. (2), the “MIC P. aerug. (2)” value is reported as above 64. The same compound returned an MIC P. aerug. Hypersuc against P. aerug. Hypersuc above 64 µg/mL. Besides, the MIC K. pneu. against K. pneu. was determined as 64 µg/mL (≈ 168 µM). The MIC H. influen. against H. influen. is above 64 µg/mL.
